Active and inactive are the calls of the source. The rule behind the calls is not given here.
Columns and labels:
Assay type in all cases: cell-based
[1] = target: Nuclear factor NF-kappa-B complex (Homo sapiens, UniProt P19838+Q00653+Q04206); experiment: Inhibition of NF-kappaB activation in human HaCaT cells assessed as inhibition of TNFalpha/IFNgamma-induced transcriptional activity after 24 hrs by Renilla luciferase assay
[2] = target: T1, Nuclear factor NF-kappa-B complex (Homo sapiens) (UniProt Q00653+P19838+Q04206); experiment: Inhibition of NF-kappaB activation in human HaCaT cells assessed as inhibition of TNFalpha/IFNgamma-induced COX2 mRNA expression after 1 hr by RT-PCR
T1 sequence (P19838 whole entry, looked up): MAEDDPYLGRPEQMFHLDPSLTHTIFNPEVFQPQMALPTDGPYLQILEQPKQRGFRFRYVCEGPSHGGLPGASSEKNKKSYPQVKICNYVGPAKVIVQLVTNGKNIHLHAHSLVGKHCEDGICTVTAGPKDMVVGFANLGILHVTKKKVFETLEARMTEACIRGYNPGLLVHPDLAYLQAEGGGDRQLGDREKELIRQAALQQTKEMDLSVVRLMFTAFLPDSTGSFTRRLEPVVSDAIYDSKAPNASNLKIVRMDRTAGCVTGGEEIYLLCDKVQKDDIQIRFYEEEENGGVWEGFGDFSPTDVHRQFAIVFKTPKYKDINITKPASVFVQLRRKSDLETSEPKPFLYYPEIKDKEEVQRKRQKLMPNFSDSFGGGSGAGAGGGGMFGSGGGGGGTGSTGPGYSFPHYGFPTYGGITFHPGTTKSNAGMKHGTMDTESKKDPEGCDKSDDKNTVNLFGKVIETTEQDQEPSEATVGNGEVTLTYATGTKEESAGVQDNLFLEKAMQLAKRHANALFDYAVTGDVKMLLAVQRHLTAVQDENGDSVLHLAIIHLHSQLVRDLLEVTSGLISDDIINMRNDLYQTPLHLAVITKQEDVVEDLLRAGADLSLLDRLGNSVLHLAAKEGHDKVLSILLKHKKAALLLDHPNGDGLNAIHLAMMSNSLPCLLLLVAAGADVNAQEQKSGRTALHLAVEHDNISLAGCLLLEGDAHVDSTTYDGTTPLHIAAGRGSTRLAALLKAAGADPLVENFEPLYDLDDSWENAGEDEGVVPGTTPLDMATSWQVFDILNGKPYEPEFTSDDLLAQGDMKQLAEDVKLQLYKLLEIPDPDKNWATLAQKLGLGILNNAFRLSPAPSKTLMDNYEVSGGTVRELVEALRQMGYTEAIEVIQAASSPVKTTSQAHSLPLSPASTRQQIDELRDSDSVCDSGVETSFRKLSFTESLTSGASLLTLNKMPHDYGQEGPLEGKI
T1 sequence (Q00653 whole entry, looked up): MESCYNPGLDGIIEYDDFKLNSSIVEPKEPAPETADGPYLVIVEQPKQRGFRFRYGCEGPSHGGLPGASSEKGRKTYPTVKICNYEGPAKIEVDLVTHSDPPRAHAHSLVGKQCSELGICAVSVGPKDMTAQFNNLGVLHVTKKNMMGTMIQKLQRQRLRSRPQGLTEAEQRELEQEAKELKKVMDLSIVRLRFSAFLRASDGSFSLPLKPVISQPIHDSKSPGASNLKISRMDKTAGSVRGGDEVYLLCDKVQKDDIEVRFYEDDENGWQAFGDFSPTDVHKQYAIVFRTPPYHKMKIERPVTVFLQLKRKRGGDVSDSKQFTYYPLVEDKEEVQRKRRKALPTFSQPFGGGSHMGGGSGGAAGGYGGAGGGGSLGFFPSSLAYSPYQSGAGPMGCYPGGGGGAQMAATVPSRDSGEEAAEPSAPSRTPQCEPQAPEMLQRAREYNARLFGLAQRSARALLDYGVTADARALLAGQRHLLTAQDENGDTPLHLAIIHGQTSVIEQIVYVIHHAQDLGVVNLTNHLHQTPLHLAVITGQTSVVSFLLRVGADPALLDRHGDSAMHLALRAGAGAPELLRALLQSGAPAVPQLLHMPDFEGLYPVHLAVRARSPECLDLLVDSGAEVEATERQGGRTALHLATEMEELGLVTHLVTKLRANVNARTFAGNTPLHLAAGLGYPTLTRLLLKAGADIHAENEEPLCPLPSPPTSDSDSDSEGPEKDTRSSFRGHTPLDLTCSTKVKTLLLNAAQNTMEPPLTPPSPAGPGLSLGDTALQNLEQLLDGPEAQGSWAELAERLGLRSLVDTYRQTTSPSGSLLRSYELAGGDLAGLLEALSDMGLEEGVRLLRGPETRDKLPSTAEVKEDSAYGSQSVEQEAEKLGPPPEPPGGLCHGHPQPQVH
T1 sequence (Q04206 whole entry, looked up): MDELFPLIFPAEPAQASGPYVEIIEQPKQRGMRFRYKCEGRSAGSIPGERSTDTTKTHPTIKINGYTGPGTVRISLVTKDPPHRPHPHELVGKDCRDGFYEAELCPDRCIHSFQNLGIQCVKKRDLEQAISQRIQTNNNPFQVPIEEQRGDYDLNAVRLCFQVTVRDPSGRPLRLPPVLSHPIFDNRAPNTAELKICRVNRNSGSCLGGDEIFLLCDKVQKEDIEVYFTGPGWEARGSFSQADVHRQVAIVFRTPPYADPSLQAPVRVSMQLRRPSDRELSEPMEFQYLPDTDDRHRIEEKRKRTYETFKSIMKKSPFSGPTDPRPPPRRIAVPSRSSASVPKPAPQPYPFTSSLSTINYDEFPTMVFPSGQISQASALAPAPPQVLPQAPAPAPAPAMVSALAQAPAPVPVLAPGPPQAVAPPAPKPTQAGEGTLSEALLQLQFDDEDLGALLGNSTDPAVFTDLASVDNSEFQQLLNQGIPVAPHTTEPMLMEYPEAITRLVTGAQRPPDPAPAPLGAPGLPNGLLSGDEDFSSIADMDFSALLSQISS

[3] = target: T1, Nuclear factor NF-kappa-B complex (Homo sapiens); experiment: Inhibition of NF-kappaB activation in human HaCaT cells assessed as inhibition of TNFalpha/IFNgamma-induced ICAM-1 mRNA expression after 1 hr by RT-PCR
[4] = target: T1, Nuclear factor NF-kappa-B complex (Homo sapiens); experiment: Inhibition of NF-kappaB activation in human HaCaT cells assessed as inhibition of TNFalpha/IFNgamma-induced iNOS mRNA expression after 1 hr by RT-PCR
HaCaT = experiment: Cytotoxicity against human HaCaT cells at 5 to 20 uM after 24 hrs by MTS assay
[5] = target: T1, Nuclear factor NF-kappa-B complex (Homo sapiens); experiment: Inhibition of NF-kappaB activation in human HaCaT cells assessed as inhibition of TNFalpha/IFNgamma-induced transcriptional activity at 50 uM after 24 hrs by Renilla luciferase assay

Nuclear factor NF-kappa-B complex, sequence (P19838 1-433 limits assumed): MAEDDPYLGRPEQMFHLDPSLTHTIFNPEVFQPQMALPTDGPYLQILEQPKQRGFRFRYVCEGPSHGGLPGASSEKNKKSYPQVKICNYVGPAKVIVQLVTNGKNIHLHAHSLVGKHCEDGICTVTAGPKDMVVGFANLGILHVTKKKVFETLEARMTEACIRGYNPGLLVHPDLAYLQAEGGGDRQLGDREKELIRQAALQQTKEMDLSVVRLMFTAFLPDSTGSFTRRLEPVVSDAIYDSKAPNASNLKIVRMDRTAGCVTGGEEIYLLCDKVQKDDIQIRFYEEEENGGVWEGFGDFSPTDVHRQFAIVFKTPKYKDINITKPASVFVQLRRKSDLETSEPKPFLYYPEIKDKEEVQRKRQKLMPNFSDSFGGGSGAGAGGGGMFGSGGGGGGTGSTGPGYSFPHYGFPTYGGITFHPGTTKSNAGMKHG
Nuclear factor NF-kappa-B complex, sequence (Q00653 1-454 limits assumed): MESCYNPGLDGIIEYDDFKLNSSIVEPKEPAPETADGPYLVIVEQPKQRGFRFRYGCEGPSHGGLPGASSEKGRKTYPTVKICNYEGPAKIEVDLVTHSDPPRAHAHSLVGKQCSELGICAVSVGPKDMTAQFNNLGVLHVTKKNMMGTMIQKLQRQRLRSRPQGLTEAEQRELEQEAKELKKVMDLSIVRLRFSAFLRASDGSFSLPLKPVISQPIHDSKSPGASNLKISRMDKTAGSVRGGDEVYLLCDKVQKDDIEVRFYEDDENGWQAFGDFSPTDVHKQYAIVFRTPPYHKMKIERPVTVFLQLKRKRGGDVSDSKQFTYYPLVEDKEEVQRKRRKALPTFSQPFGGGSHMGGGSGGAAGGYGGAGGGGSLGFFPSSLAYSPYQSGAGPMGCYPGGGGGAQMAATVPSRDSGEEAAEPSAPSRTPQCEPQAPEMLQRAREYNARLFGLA
Nuclear factor NF-kappa-B complex, sequence (Q04206 whole entry): as the sequence (Q04206 whole entry, looked up) above

| SMILES | EC50 [1] [µM] | inhibition [2] | inhibition [3] | inhibition [4] | Activity (HaCaT) | inhibition [5] |
| --- | --- | --- | --- | --- | --- | --- |
| CC(=O)OC(C)(C)[C@@H](C)/C=C/[C@@H](C)[C@H]1CC[C@H]2[C@@H]3C[C@@H](O)[C@@]4(O)C[C@@H](O)C[C@@H](O)[C@]4(C)[C@H]3CC[C@]12C | 8.27 | Dose-dependent effect | Dose-dependent effect | Dose-dependent effect | Non-toxic |  |
| C=C(C)[C@@H](C)CC[C@@H](C)[C@H]1CC[C@H]2[C@@H]3C[C@@H](O)[C@@]4(O)C[C@@H](O)C[C@@H](O)[C@]4(C)[C@H]3CC[C@]12C |  |  |  |  | Non-toxic | Active |
| CC(=O)OC(C)(C)[C@@H](C)CC[C@@H](C)[C@H]1CC[C@H]2[C@@H]3C[C@@H](O)[C@@]4(O)C[C@@H](O)C[C@@H](O)[C@]4(C)[C@H]3CC[C@]12C | 26.1 |  |  |  | Non-toxic |  |
